This passage reports MIC results from ChEMBL document CHEMBL1145464, “Modeling the combination of amphotericin B, micafungin, and nikkomycin Z against Aspergillus fumigatus in vitro using a novel response surface paradigm” (2007).

In brackets after ≈: the same amount, converted by molar mass. *1 amine or outer side, *2 acyl side, *3 side chain or, on linkers, in order; H or OH if unused. Where a SMILES comes first, the peptide text is derived from it. Bridges are numbered along the chain shown (N, C = ends). [ ]: non-standard residue; d: D form. The star is where a group is joined. hTyr(3S-OH,4S-OH,3'-OSO3H) = N[C@H](C(=O)O)[C@H](O)[C@@H](O)c1ccc(O)c(OS(=O)(=O)O)c1; Orn(4R-OH,5R-OH) = O=C([C@H](C[C@@H](O)[C@@H](O)N[*:3])N[*:1])[*:2]; Pro(3S-OH,4S-Me) = C[C@H]1CN[C@H](C(=O)O)[C@H]1O; X1 = CCCCCOc1ccc(-c2cc(-c3ccc(C(=O)*)cc3)no2)cc1; Gln(3R-OH) = NC(=O)C[C@@H](O)[C@H](N)C(=O)O; Hyp = O=C(O)[C@@H]1C[C@@H](O)CN1

For assay [1], the system named is Aspergillus fumigatus. The experiment in a line: Antifungal activity against Aspergillus fumigatus isolate after 24 hrs by CLSI method.
For assay [2], the system named is Aspergillus fumigatus. The experiment in a line: Antifungal activity against Aspergillus fumigatus isolate after 48 hrs by CLSI method.

For orientation: MIC means the least concentration at which growth counts as inhibited. Turning to `C[C@@H]1[C@H](O)[C@@H](C)/C=C/C=C/C=C/C=C/C=C/C=C/C=C/[C@H](O[C@@H]2O[C@H](C)[C@@H](O)[C@H](N)[C@@H]2O)C[C@@H]2O[C@](O)(C[C@@H](O)C[C@@H](O)[C@H](O)CC[C@@H](O)C[C@@H](O)CC(=O)O[C@H]1C)C[C@H](O)[C@H]2C(=O)O` (stereo in doubt) [AMPHOTERICIN B], the minimum inhibitory concentration (MIC) in the assay with Aspergillus fumigatus [1] and with Aspergillus fumigatus [2] was 0.5 µg/mL (≈ 0.541 µM) throughout.

As to `CCCCCOc1ccc(-c2cc(-c3ccc(C(=O)N[C@H]4C[C@@H](O)[C@@H](O)NC(=O)[C@@H]5[C@@H](O)[C@@H](C)CN5C(=O)[C@H]([C@H](O)CC(N)=O)NC(=O)[C@H]([C@H](O)[C@@H](O)c5ccc(O)c(OS(=O)(=O)O)c5)NC(=O)[C@@H]5C[C@@H](O)CN5C(=O)[C@H]([C@@H](C)O)NC4=O)cc3)no2)cc1` [MICAFUNGIN] (X1-[Orn(4R-OH,5R-OH)]T[Hyp][hTyr(3S-OH,4S-OH,3'-OSO3H)][Gln(3R-OH)][Pro(3S-OH,4S-Me)]; lactam 1-C), the MIC in the assay with Aspergillus fumigatus [1] and in the assay on Aspergillus fumigatus [2] was not above 0.03 µg/mL each time.

Regarding `C[C@@H]([C@H](N)C(=O)N[C@H](C(=O)O)[C@H]1O[C@@H](n2ccc(=O)[nH]c2=O)[C@H](O)[C@@H]1O)[C@H](O)c1ccc(O)cn1` [NIKKOMYCIN], the minimum inhibitory concentration (MIC) is 64 µg/mL (≈ 129 µM) with Aspergillus fumigatus [1] and 128 µg/mL (≈ 258 µM) against Aspergillus fumigatus [2].
